# Results from patent publication US12441723B2, “Pyrazole compounds, formulations thereof, and a method for using the compounds and/or formulations” (Rigel Pharmaceuticals, Inc., priority 2019, dated 2025).
# Where a name gives a salt, the structure may show the parent alone.
# Experiments:
# [1] = Hygroscopicity evaluation by DVS of salts of I-18; type: physicochemical; conditions: 25° C., judged from uptake at 80% RH
# Protocol: To investigate the solid form stability as a function of humidity, DVS isotherm plot of the K salt, Arginine salt, Choline salt and Tris salt were collected at 25° C. between 0 and 95% RH.
# [2] = Physical and chemical stability of salts of I-18, 1 week (XRPD, HPLC purity); type: physicochemical; conditions: for Area (%) of HPLC peak RRT 1.00: main peak; for Area (%) of HPLC peak RRT 1.17: peak = parent compound formed by hydrolysis; for Form change: XRPD
# Protocol: The physical and chemical stability of the K salt, Arginine salt, Choline salt and Tris salt were evaluated under conditions of 25° C./60% RH and 40° C./75% RH for 1 week. Each sample was added into 3 mL glass vials, sealed by parafilm with several holes, and kept under tested condition. After one week, samples was taken for XRPD and HPLC purity test.
# [3] = 25° C./60% RH, 1 week, listed as arginine salt
# [4] = 40° C./75% RH, 1 week, listed as arginine salt
# [5] = Initial, listed as arginine salt
structure (smiles),measurement,setting,value
"CCO[C@H]1CC[C@H](n2cc(NC(=O)c3csc(-c4cnn(C(C)OP(=O)(O)O)c4)n3)c(-c3nc(F)ccc3F)n2)CC1 (stereo partly drawn) [I-110, 1-(4-(4-((3-(3,6-difluoropyridin-2-yl)-1-((1r,4r)-4-ethoxycyclohexyl)-1H-pyrazol-4-yl)carbamoyl)thiazol-2-yl)-1H-pyrazol-1-yl)ethyl dihydrogen phosphate arginine salt]",hygroscopicity,[1],slight hygroscopic
same,Area (%) of HPLC peak RRT 1.13,"[2]; 25° C./60% RH, 1 week",0.06%
same,Area (%) of HPLC peak RRT 0.77,[2]; [3],0.03%
same,Area (%) of HPLC peak RRT 1.35,[2]; [3],0.06%
same,Area (%) of HPLC peak RRT 1.45,[2]; [3],0.50%
same,Area (%) of HPLC peak RRT 1.71,[2]; [3],0.74%
same,Area (%) of HPLC peak RRT 1.73,[2]; [3],0.61%
same,HPLC purity change,[2]; [3],slight purity decrease
same,Area (%) of HPLC peak RRT 1.00,[2]; [3],95.31%
same,Area (%) of HPLC peak RRT 1.17,[2]; [3],2.68%
same,Form change,"[2]; 25° C./60% RH/1 week, listed as Arginine salt",no form change and No
same,Area (%) of HPLC peak RRT 1.13,"[2]; 40° C./75% RH, 1 week",0.06%
same,Area (%) of HPLC peak RRT 0.77,[2]; [4],0.04%
same,Area (%) of HPLC peak RRT 1.35,[2]; [4],0.11%
same,Area (%) of HPLC peak RRT 1.45,[2]; [4],0.47%
same,Area (%) of HPLC peak RRT 1.71,[2]; [4],0.73%
same,Area (%) of HPLC peak RRT 1.73,[2]; [4],0.60%
same,HPLC purity change,[2]; [4],slight purity decrease
same,Area (%) of HPLC peak RRT 1.00,[2]; [4],95.50%
same,Area (%) of HPLC peak RRT 1.17,[2]; [4],2.48%
same,Form change,"[2]; 40° C./75% RH/1 week, listed as Arginine salt",no form change and No
same,Initial purity (area %),"[2]; HPLC, before storage, listed as Arginine salt",95.91 area %
same,Area (%) of HPLC peak RRT 1.35,[2]; Initial,<0.03%
same,Area (%) of HPLC peak RRT 0.77,[2]; [5],<0.03%
same,Area (%) of HPLC peak RRT 1.13,[2]; [5],<0.03%
same,Area (%) of HPLC peak RRT 1.45,[2]; [5],0.44%
same,Area (%) of HPLC peak RRT 1.71,[2]; [5],0.73%
same,Area (%) of HPLC peak RRT 1.73,[2]; [5],<0.53%
same,Area (%) of HPLC peak RRT 1.00,[2]; [5],95.91%
same,Area (%) of HPLC peak RRT 1.17,[2]; [5],2.39%
